The nature of series [1]: Pharmacokinetics in monkeys, SC dosing. It is filed as in vivo, cynomolgus monkeys. As to conditions: for half-life: cynomolgus monkey, in vivo, male cynomolgus monkeys, SC single dose 0.2 mg/kg, 0.1% bovine serum albumin in phosphate buffered saline, mean; for persistence in the blood stream as compared to tirzepatide: cynomolgus monkeys, SC 0.2 mg/kg.
Experimental: (§1) Subcutaneous (SC) dosing of the compounds in a vehicle of 0.1% bovine serum albumin in phosphate buffered saline solution was performed with male cynomolgus monkeys. […] Samples were obtained at 1, 4, 8, 12, 24, 48, 72, 96, 120, 168, 192, 240 and 336 hours after the single dose was administered.
A short description of series [2]: Pharmacokinetics studies of formulations, SC dosing. In kind it is in vivo, cynomolgus monkeys. As to conditions: for half-life: cynomolgus monkey, in vivo, SC 0.2 mg/kg, mean.
Experimental: as §1
Formulation 1 included the compound in a vehicle of 0.1% bovine serum albumin in phosphate buffered saline solution.
Series [3] relates to mice fed Gubra amylin NASH (GAN) diet. Put plainly: Biological effects in GAN diet NASH mice. The following applies: after two weeks, 10 mg/kg group; for Gal-3 Total: liver Galectin-3, histological quantitative assessment; for TG Total: liver triglycerides, GAN diet NASH mice; for α-SMA Total: liver α-smooth muscle actin, histological quantitative assessment. It is filed as in vivo. The protocol:
NASH was induced in mice by feeding mice a Gubra amylin NASH (GAN) diet as described in Boland et al. World J Gastroenterol. 2019, 25(33): 4904-4920. One week prior to administration of a first dose of compounds, the mice were weighed and randomized, and their food intake was measured. Mice were randomly assigned to dosing groups, with twelve mice per group. […] Compound dose titration (nmol/kg): 0.6 (day 0), 1.2 (day 1), 2.4 (day 2), 4.8 (day 3), 4.8 (day 4), 12 (day 5), 30.0 (from day 6).
After two weeks, animals were sacrificed. Plasma enzymes (P-ALT (alanine aminotransferase) and P-AST (aspartate aminotransferase)), total plasma triglycerides, and total plasma cholesterol were measured, and terminal necropsy of each liver was carried out, determining relative liver weight as a percentage of body weight, assaying total liver biochemistry including total liver triglycerides, plasma insulin and total liver cholesterol, as well as histological evaluation of Galectin-3, and alpha-smooth muscle actin.

The target of series [4] is T1, GIP receptor (Homo sapiens, UniProt P48546).
T1 sequence (P48546 22-466): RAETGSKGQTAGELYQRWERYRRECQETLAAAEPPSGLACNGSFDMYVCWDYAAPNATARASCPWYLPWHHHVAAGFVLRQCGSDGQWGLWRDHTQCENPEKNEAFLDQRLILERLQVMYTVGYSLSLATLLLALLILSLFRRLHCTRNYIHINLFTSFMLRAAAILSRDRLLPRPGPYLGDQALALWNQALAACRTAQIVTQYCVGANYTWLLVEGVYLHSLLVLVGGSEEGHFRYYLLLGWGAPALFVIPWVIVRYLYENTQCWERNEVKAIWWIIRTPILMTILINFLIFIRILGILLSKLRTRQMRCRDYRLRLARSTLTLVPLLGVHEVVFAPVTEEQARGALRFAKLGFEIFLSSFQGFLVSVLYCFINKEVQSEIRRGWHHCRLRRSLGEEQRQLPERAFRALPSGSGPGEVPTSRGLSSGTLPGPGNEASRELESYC
The experiment in a line: TagLite binding assay, GIP receptor. As to conditions: for % Binding avg at CMax: GIP receptor.

Series [5] concerns the target T1, GIP receptor. The experiment in a line: HSA modulated binding assay, GIP receptor. As to conditions: for % Binding avg at CMax: GIP receptor; for IC50: IC 50, GIP receptor.
For series [6], the target named is T2, GLP-1 receptor (Homo sapiens, UniProt P43220). Put plainly: TagLite binding assay, GLP-1 receptor. As to conditions: for % Binding avg at CMax: GLP-1 receptor.
Series [7] addresses T2, GLP-1 receptor. Put plainly: HSA modulated binding assay, GLP-1 receptor. As to conditions: for IC50: IC 50, GLP-1 receptor.

T2 sequence (P43220 24-463): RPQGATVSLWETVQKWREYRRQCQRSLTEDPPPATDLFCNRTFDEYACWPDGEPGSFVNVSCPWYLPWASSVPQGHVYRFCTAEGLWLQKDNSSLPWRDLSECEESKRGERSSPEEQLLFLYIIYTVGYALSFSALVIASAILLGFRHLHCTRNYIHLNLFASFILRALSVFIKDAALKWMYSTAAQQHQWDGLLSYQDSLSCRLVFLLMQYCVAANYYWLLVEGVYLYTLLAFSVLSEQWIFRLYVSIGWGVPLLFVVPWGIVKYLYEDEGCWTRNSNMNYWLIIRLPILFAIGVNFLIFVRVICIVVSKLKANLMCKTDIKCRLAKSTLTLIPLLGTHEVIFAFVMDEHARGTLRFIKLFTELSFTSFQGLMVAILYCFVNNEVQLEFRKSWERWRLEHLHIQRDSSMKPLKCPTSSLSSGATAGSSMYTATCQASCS

`CC[C@H](C)[C@H](NC(=O)[C@H](CC(C)C)NC(=O)[C@H](Cc1c[nH]c2ccccc12)NC(=O)[C@H](CCC(N)=O)NC(=O)[C@@H](NC(=O)[C@H](Cc1ccccc1)NC(=O)[C@H](C)NC(=O)[C@H](CCCCNC(=O)COCCOCCNC(=O)COCCOCCNC(=O)CC[C@H](NC(=O)CCCCCCCCCCCCCCCCCCP(=O)(O)O)C(=O)O)NC(=O)[C@H](CCC(N)=O)NC(=O)[C@H](C)NC(=O)[C@@H](NC(=O)[C@H](CCCCN)NC(=O)[C@H](CC(=O)O)NC(=O)[C@H](CC(C)C)NC(=O)C(C)(C)NC(=O)[C@@H](NC(=O)[C@H](CO)NC(=O)[C@H](Cc1ccc(O)cc1)NC(=O)[C@H](CC(=O)O)NC(=O)[C@H](CO)NC(=O)[C@@H](NC(=O)[C@H](Cc1ccccc1)NC(=O)[C@@H](NC(=O)CNC(=O)[C@H](CCC(=O)O)NC(=O)C(C)(C)NC(=O)[C@@H](N)Cc1ccc(O)cc1)[C@@H](C)O)[C@@H](C)O)[C@@H](C)CC)[C@@H](C)CC)C(C)C)C(=O)N[C@@H](C)C(=O)NCC(=O)NCC(=O)N1CCC[C@H]1C(=O)N[C@@H](CO)C(=O)N[C@@H](CO)C(=O)NCC(=O)N[C@@H](C)C(=O)N1CCC[C@H]1C(=O)N1CCC[C@H]1C(=O)N1CCC[C@H]1C(=O)N[C@@H](CO)C(N)=O` [Compound 4]: in series [1], the half-life (usually how long it takes for the measured level to halve) is 118 h and the “persistence in the blood stream as compared to tirzepatide” value is given as “significantly greater persistence”. For the same compound, the “persistence in the blood stream as compared to tirzepatide in the identical formulation” value in series [2] (Formulation 1 and Formulation 2) is on record as “significantly greater persistence”. The compound further showed a half-life in series [2] (Formulation 1 (0.1% bovine serum albumin in phosphate buffered saline)) of 106 h. The same compound showed a half-life in series [2] (Formulation 2 (40% propylene glycol and 60% 10 mM pH 6 citrate buffer)) of 120 h. Moreover, in series [3], the “Gal-3 Total” value is 137 ± 15 mg, the “TG Total” value stood at 70 ± 5 mg per/ liver and the “α-SMA Total” value worked out at 102 ± 10 mg.
For the compound `CC[C@H](C)[C@H](NC(=O)[C@H](CC(C)C)NC(=O)[C@H](Cc1c[nH]c2ccccc12)NC(=O)[C@H](CCC(N)=O)NC(=O)[C@@H](NC(=O)[C@H](Cc1ccccc1)NC(=O)[C@H](C)NC(=O)[C@H](CCCCNC(=O)COCCOCCNC(=O)COCCOCCNC(=O)CC[C@H](NC(=O)CCCCCCCCCCCCCCCCCCC(=O)O)P(=O)(O)O)NC(=O)[C@H](CCC(N)=O)NC(=O)[C@H](C)NC(=O)[C@@H](NC(=O)[C@H](CCCCN)NC(=O)[C@H](CC(=O)O)NC(=O)[C@H](CC(C)C)NC(=O)C(C)(C)NC(=O)[C@@H](NC(=O)[C@H](CO)NC(=O)[C@H](Cc1ccc(O)cc1)NC(=O)[C@H](CC(=O)O)NC(=O)[C@H](CO)NC(=O)[C@@H](NC(=O)[C@H](Cc1ccccc1)NC(=O)[C@@H](NC(=O)CNC(=O)[C@H](CCC(=O)O)NC(=O)C(C)(C)NC(=O)[C@@H](N)Cc1ccc(O)cc1)[C@@H](C)O)[C@@H](C)O)[C@@H](C)CC)[C@@H](C)CC)C(C)C)C(=O)N[C@@H](C)C(=O)NCC(=O)NCC(=O)N1CCC[C@H]1C(=O)N[C@@H](CO)C(=O)N[C@@H](CO)C(=O)NCC(=O)N[C@@H](C)C(=O)N1CCC[C@H]1C(=O)N1CCC[C@H]1C(=O)N1CCC[C@H]1C(=O)N[C@@H](CO)C(N)=O` [Compound 8], in series [3], the “Gal-3 Total” value worked out at 117 ± 12 mg, the “TG Total” value was 75 ± 7 mg per/ liver and the “α-SMA Total” value is on record as 83 ± 8 mg.
In turn, `CC[C@H](C)[C@H](NC(=O)[C@H](CC(C)C)NC(=O)[C@H](Cc1c[nH]c2ccccc12)NC(=O)[C@H](CCC(N)=O)NC(=O)[C@@H](NC(=O)[C@H](Cc1ccccc1)NC(=O)[C@H](C)NC(=O)[C@H](CCCCNC(=O)COCCOCCNC(=O)COCCOCCNC(=O)CC[C@H](NC(=O)CCCCCCCCCCCCCCCCCCP(=O)(O)O)P(=O)(O)O)NC(=O)[C@H](CCC(N)=O)NC(=O)[C@H](C)NC(=O)[C@@H](NC(=O)[C@H](CCCCN)NC(=O)[C@H](CC(=O)O)NC(=O)[C@H](CC(C)C)NC(=O)C(C)(C)NC(=O)[C@@H](NC(=O)[C@H](CO)NC(=O)[C@H](Cc1ccc(O)cc1)NC(=O)[C@H](CC(=O)O)NC(=O)[C@H](CO)NC(=O)[C@@H](NC(=O)[C@H](Cc1ccccc1)NC(=O)[C@@H](NC(=O)CNC(=O)[C@H](CCC(=O)O)NC(=O)C(C)(C)NC(=O)[C@@H](N)Cc1ccc(O)cc1)[C@@H](C)O)[C@@H](C)O)[C@@H](C)CC)[C@@H](C)CC)C(C)C)C(=O)N[C@@H](C)C(=O)NCC(=O)NCC(=O)N1CCC[C@H]1C(=O)N[C@@H](CO)C(=O)N[C@@H](CO)C(=O)NCC(=O)N[C@@H](C)C(=O)N1CCC[C@H]1C(=O)N1CCC[C@H]1C(=O)N1CCC[C@H]1C(=O)N[C@@H](CO)C(N)=O` [Compound 12] gave a half-life in series [1] of 104 h. Also, in series [1], the “persistence in the blood stream as compared to tirzepatide” value is “significantly greater persistence”. Moreover, the half-inhibitory concentration (IC50) (in general, the concentration that inhibits the measured activity by half) was determined as 137 nM on GIP receptor [4]; 256 nM on GIP receptor [5] (0% HSA); 436 nM at GIP receptor [5] (2% HSA); 129 nM at GLP-1 receptor [6]; 145 nM on GLP-1 receptor [7] (0% HSA); 763 nM at GLP-1 receptor [7] (2% HSA). The “% Binding avg at CMax” value is on record as −1.47% on GIP receptor [4]; −3.33% on GIP receptor [5] (0% HSA); 5.52% on GIP receptor [5] (2% HSA); 0.09% at GLP-1 receptor [6]; 0.22% at GLP-1 receptor [7] (GLP-1 receptor, 0% HSA); 12.04% at GLP-1 receptor [7] (GLP-1 receptor, 2% HSA).
As for tirzepatide [reference compound], the “% Binding avg at CMax” value at GIP receptor [4] is listed as −1.21%; at GIP receptor [5] (0% HSA) it was −3.05%; at GIP receptor [5] (2% HSA), 10.07%; on GLP-1 receptor [6] it was 0.20%; at GLP-1 receptor [7] (GLP-1 receptor, 0% HSA), −0.14%; on GLP-1 receptor [7] (GLP-1 receptor, 2% HSA) it was 33.01%. In addition, the “Gal-3 Total” value in series [3] is 138 ± 17 mg. For the same compound, in series [3], the “TG Total” value came out at 80 ± 11 mg per/ liver. The “α-SMA Total” value in series [3] amounted to 108 ± 22 mg. Besides, at GLP-1 receptor [7] (GLP-1 receptor, binding with 2% HSA to binding with 0% HSA), the “Ratio of HSA/No HSA” value was found to be 12.8.

The record behind these values is patent US11744873B2, “Compositions and methods for the treatment of metabolic and liver disorders” (Viking Therapeutics, Inc., priority 2021, dated 2023).
